Source: patent US20170368134A1, “PROTEASOME INHIBITORS FOR TREATING A DISORDER RELATED TO AN ACCUMULATION OF NON-DEGRADED ABNORMAL PROTEIN OR A CANCER” (UNIVERSITÉ D'AIX-MARSEILLE, priority 2015, published 2017)
Square brackets hold non-standard residues; d marks the D form. Peptide text beside a SMILES is read from it. * marks the point of attachment. Nva = CCC[C@H](N)C(=O)O; Cbz = O=C(OCc1ccccc1)*; CH2F = FC*

Assays:
progerin = assay: Western blot of progerin levels in HGPS fibroblasts; format: cell-based, human; settings: HGPS fibroblasts; for progerin clearance / suppression of progerin accumulation compared with MG132: 10 μM, 48 h (FIG. 1C); for effect on MG132-induced progerin clearance (co-treatment with MG132): 48 h, added together with MG132; for progerin expression levels, inhibitor alone: alone at high doses
Method: HGPS fibroblasts (AG01972: person, AG11498: person) were obtained from the Coriell Cell Repository. Cells were cultured in Dulbecco's modified Eagle's medium (Life Technologies) supplemented with 15% fetal bovine serum (Life Technologies), 2 mM L-glutamine (Life Technologies) and 1× penicillin-streptomycin (Life Technologies) at 37° C. in a humidified atmosphere containing 5% CO2. […]
(§1) Total fibroblast proteins were extracted in 200 μL of NP40 Cell Lysis buffer (Invitrogen, Carlsbad, Calif.) containing Protease and Phosphatase Inhibitor Cocktail (Thermo Scientific). Alternatively, cells were lysed with urea (8 M urea, 5 mM dithiothreitol, 150 mM NaCl, 50 mM Tris-Cl pH 7.5, protease and phosphatase Inhibitor Cocktail (Thermo Scientific)). Cells were sonicated twice (30 sec each), incubated at 4° C. for 30 minutes and then centrifuged at 10,000 g for 10 minutes. Protein concentration was evaluated with the bicinchoninic acid technique (Pierce BCA Protein Assay Kit), absorbance at 562 nm is measured using nanodrop 1000 (Thermo Fisher Scientific Inc.) Equal amounts of proteins (40 μg) were loaded onto 10% Tis-Glycine gel (Criterion™ XT precast gel) using XT Tricine running Buffer (Biorad, USA). After electrophoresis, gels were electro transferred onto nitrocellulose membranes or Immobilon-FL polyvinylidene fluoride membranes (Millipore), blocked in Odyssey Blocking Buffer diluted 1:1 in PBS for 1 hour at room temperature, and incubated overnight at 4° C. or 2 hours at room temperature with various primary antibodies. Blots were washed with TBS-T buffer [20 mM tris (pH 7.4), 150 mM NaCl, and 0.05% Tween 20] and incubated with 1:10,000 IR-Dye 800-conjugated secondary donkey anti-goat or IR-Dye 700-conjugated secondary anti-mouse antibodies (LI-COR Biosciences) in Odyssey blocking buffer (LI-COR Biosciences). For IR-Dye 800 and IR-Dye 700 detection, an Odyssey Infrared Imaging System (LI-COR Biosciences) was used. GAPDH, α-tubulin or β-actin were used as a total cellular protein loading control.

SRSF-1 = assay: Western blot of SRSF-1 in HGPS fibroblasts; format: cell-based, human; settings: for SRSF-1 levels, autophagy inhibitor alone: HGPS fibroblasts, chloroquine 50 μM, bafilomycin A1 100 nM
Method: as §1

proteasome = target: T1, proteasome (Homo sapiens, UniProt P28072+P28074+Q99436); assay: Proteasome-Glo cell-based proteasome activities (chymotrypsin-like, trypsin-like, caspase-like) in HGPS cells; settings: HGPS cells treated with the autophagy inhibitor
T1 construct: The proteasome activities were determined in HGPS and control cells; endogenous in cells; host or cells: HGPS fibroblasts (AG01972, AG11498, 5968)
T1 sequence (P28074 60-263): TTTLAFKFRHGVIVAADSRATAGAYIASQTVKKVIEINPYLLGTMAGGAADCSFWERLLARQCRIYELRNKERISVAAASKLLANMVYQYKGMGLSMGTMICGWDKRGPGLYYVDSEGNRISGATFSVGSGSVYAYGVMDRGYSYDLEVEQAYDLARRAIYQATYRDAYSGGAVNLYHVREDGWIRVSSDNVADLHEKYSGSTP
T1 sequence (Q99436 44-277): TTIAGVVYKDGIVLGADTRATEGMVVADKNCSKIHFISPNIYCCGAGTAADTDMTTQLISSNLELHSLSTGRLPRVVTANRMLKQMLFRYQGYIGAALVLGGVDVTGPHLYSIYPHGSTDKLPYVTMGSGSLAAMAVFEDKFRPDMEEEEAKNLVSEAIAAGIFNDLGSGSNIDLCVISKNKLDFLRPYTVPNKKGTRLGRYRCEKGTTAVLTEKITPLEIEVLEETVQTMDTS
T1 sequence (P28072 1-239): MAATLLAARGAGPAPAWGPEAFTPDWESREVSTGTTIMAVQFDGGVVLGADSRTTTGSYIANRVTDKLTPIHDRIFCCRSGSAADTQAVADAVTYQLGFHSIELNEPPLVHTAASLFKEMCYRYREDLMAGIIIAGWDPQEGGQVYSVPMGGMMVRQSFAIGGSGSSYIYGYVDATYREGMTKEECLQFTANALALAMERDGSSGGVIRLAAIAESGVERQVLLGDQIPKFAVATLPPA
Method: The proteasome activities were determined in HGPS and control cells by using the Proteasome-Glo™ 3-Substrate Cell-Based Assay System (Promega) that allows to measure the chymotrypsin-like, trypsin-like or caspase-like protease activity associated with the proteasome complex in cultured cells. The Proteasome-Glo™ Cell-Based Reagents each contain a specific luminogenic proteasome substrate. These peptide substrates are Suc-LLVY amino luciferin (Succinyl-leucine-leucine-valine-tyro sine-amino luciferin), Z-LRR-amino luciferin (Z-leucine-arginine-arginine-aminoluciferin) and Z-nLPnLD-amino luciferin (Z-norleucine-proline-norleucine-aspartate-amino luciferin) for the chymotrypsin-like, trypsin-like and caspase-like activities, respectively. Cells (10,000 cells/well) were cultured in 100 μl/well in a 96-well plate at 37° C., 5% CO2. The plate was allowed to equilibrate to 22° C. before 100 μl/well of substrate and luciferin detection reagent was added. The contents of the wells were mixed at 700 rpm using a plate shaker for 2 minutes and incubated at room temperature for 10 minutes. Following cleavage by the proteasome, the substrate for luciferase (amino luciferin) is released, allowing the luciferase reaction to proceed and produce light. Luminescence is determined as relative light units (RLUs) using a GloMax-Multi Detection System: Luminometer (Promega, USA).

CCC[C@@H](C=O)NC(=O)[C@H](CC(C)C)NC(=O)[C@H](CC(C)C)NC(=O)OCc1ccccc1 [MG115, Z-Leu-Leu-Nva-H] (Cbz-Leu-Leu-[Nva]-aldehyde)
progerin clearance / suppression of progerin accumulation compared with MG132 (progerin): the same efficacy in suppressing progerin accumulation

COC(=O)C[C@H](NC(=O)[C@H](C)NC(=O)[C@@H](NC(=O)OCc1ccccc1)C(C)C)C(=O)CF [pan-caspase inhibitor, Z-VAD-FMK] (Cbz-Val-Ala-Asp(OMe)-CH2F)
effect on MG132-induced progerin clearance (co-treatment with MG132) (progerin): increase of progerin that slightly reaches the control levels | SRSF-1 protein expression, added during MG132 treatment (SRSF-1; HGPS cells, co-treatment with MG132): rescue of SRSF-1 protein expression

CCC(=C/[C@H](C)C/C=C/C(C)=C/[C@@H](C)C(=O)[C@@H](C)[C@H](O)[C@@H](C)C/C(C)=C/C(=O)O)/C=C/[C@@H]1OC(=O)C=C[C@@H]1C [leptomycin B]
effect on MG132-induced progerin clearance (co-treatment with MG132) (progerin): does not inhibit MG132 induced progerin clearance

CC(C)C[C@H](NC(=O)[C@H](CC(C)C)NC(=O)[C@H](CC(C)C)NC(=O)OCc1ccccc1)B(O)O [MG262, Z-Leu-Leu-Leu-B(OH)2]
progerin clearance / suppression of progerin accumulation compared with MG132 (progerin): less effective

CC(C)C[C@H](NC(=O)[C@H](Cc1ccccc1)NC(=O)c1cnccn1)B(O)O [bortezomib]
progerin clearance / suppression of progerin accumulation compared with MG132 (progerin): do not induce progerin clearance

CO/C1=C\C(C)=C\[C@@H](C)[C@@H](O)[C@@H](C)C/C(C)=C/C=C/[C@H](OC)[C@@H]([C@@H](C)[C@@H](O)[C@H](C)[C@@]2(O)C[C@@H](O)[C@H](C)[C@@H](C(C)C)O2)OC1=O [bafilomycin A1]
effect on MG132-induced progerin clearance (co-treatment with MG132) (progerin): partially inhibited the effect of MG132 | progerin expression levels, inhibitor alone (progerin): reduced expression levels of progerin | SRSF-1 levels, autophagy inhibitor alone (SRSF-1): decrease SRSF-1 levels | three proteasome activities (proteasome): not modified

CC(C)C[C@H](NC(=O)[C@H](CCc1ccccc1)NC(=O)CN1CCOCC1)C(=O)N[C@@H](Cc1ccccc1)C(=O)N[C@@H](CC(C)C)C(=O)[C@@]1(C)CO1 [carfilzomib]
progerin clearance / suppression of progerin accumulation compared with MG132 (progerin): do not induce progerin clearance

CC[C@H](C)[C@H](NC(=O)[C@H](CCC(=O)OC)NC(=O)[C@@H](NC(=O)OCc1ccccc1)C(C)C)C(=O)N[C@@H](CC(=O)OC)C(=O)CF [caspase-6 inhibitor, Z-VEID-FMK] (Cbz-VE(OMe)ID(OMe)-CH2F)
effect on MG132-induced progerin clearance (co-treatment with MG132) (progerin): progerin level remained below the HGPS control

CCN(CC)CCCC(C)Nc1ccnc2cc(Cl)ccc12 (stereo not drawn) [chloroquine]
progerin expression levels, inhibitor alone (progerin): reduced expression levels of progerin | SRSF-1 levels, autophagy inhibitor alone (SRSF-1): decrease SRSF-1 levels | three proteasome activities (proteasome): not modified
